Measured values taken from patent US20240401073A1, “ALS INHIBITOR HERBICIDE TOLERANT BETA VULGARIS MUTANTS” (KWS SAAT SE & Co. KGaA, priority 2021, published 2024).

Columns and labels:
[1] = tested on: homozygous BvALS_D371E mutants; assay type: in vivo, Beta vulgaris (sugar beet); conditions: greenhouse, 1× recommended field application concentration, treated when first true leaves appeared, rated 14 days after treatment; growing of first pair of true leaves as indicator
From the text: (§1) The identified ALS mutants have been tested repeatedly in CONVISO® ONE treatments in concentrations used for field treatments as well as in treatment with the individual active ingredients of CONVISO® ONE, Foramsulfuron and Thiencarbazon-methyl, treatment with Pulsar® 40 (active ingredient: Imazamox), treatment with active ingredient Bispyribac, and treatment with Broadway® (active ingredients: Florasulam, Pyroxylam) (Table 1). All herbicide treatments has been conducted with amount corresponding to 1× recommended field application concentration: Offspring seed of both, a plant homozygous and heterozygous for BvALS_D371E mutation as well as the M0-background genotype were sown, cultivated in a greenhouse and transplanted to single pots after emergence. Herbicide treatments were performed when first true leaves appeared.
(§2) Tolerance ratings were taken 14 days after treatment. Growing of the first pair of true leaves was used as indicator for herbicide tolerance.

[2] = tested on: heterozygous BvALS_D371E mutants; assay type: in vivo, Beta vulgaris (sugar beet); conditions: greenhouse, 1× recommended field application concentration, treated when first true leaves appeared, rated 14 days after treatment; growing of first pair of true leaves as indicator
From the text: as §1, §2

[3] = tested on: sugar beet mutant line carrying W569L; conditions: WO 2012/049268; cited from earlier work

Compound | Herbicide tolerance, Homozygous mutants [1] | Herbicide tolerance, Heterozygous mutants [2] | herbicide tolerance of W569L mutant line [3]
COc1cc(OC)nc(Oc2cccc(Oc3nc(OC)cc(OC)n3)c2C(=O)O)n1 [Bispyribac] | Tolerant | tolerant | 
COc1cc(OC)nc(NC(=O)NS(=O)(=O)c2cc(NC=O)ccc2C(=O)N(C)C)n1 [foramsulfuron] | Tolerant | tolerant | tolerant
COC(=O)c1csc(C)c1S(=O)(=O)NC(=O)n1nc(OC)n(C)c1=O [thiencarbazone-methyl] | Tolerant | tolerant | tolerant
